“And” between values parts separate entries of the source, which are not always exact repeats. Identical values can stand only once.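 Exposure lasted 48 hours, with cells grown in 96-well plates and compounds tested at five concentrations. Abbreviation: GI50, concentration required for 50% inhibition of growth. At the TGI there is no net growth.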
Tests used:
Assay in all cases: NCI tumour cell line growth inhibition, 48 h
EKVX NSCLC = system: EKVX NSCLC
HL-60(TB) leukemia = system: HL-60(TB) leukemia
HT29 colon = system: HT29 colon
RPMI-8226 leukemia = system: RPMI-8226 leukemia
RXF 393 renal = system: RXF 393 renal
SF-268 CNS = system: SF-268 CNS
SK-MEL-2 melanoma = system: SK-MEL-2 melanoma
SK-MEL-5 melanoma = system: SK-MEL-5 melanoma
SNB-75 CNS = system: SNB-75 CNS
SR leukemia = system: SR leukemia

SMILES	TGI (EKVX NSCLC)	TGI (HL-60(TB) leukemia)	TGI (HT29 colon)	TGI (RPMI-8226 leukemia)	TGI (RXF 393 renal)	TGI (SF-268 CNS)	TGI (SK-MEL-2 melanoma)	TGI (SK-MEL-5 melanoma)	TGI (SNB-75 CNS)	TGI (SR leukemia)	GI50 (EKVX NSCLC)	GI50 (HL-60(TB) leukemia)	GI50 (HT29 colon)	GI50 (RPMI-8226 leukemia)	GI50 (RXF 393 renal)	GI50 (SF-268 CNS)	GI50 (SK-MEL-2 melanoma)	GI50 (SK-MEL-5 melanoma)	GI50 (SNB-75 CNS)	GI50 (SR leukemia)
COC(=O)Nc1nc2ccc(Br)cc2[nH]1	> 100 µM	90 µM	37.4 µM	> 100 µM	67.2 µM	> 100 µM	62.6 µM	> 100 µM	> 100 µM	> 100 µM										
CCOC(=O)c1c2c(n3ccccc13)C(=O)c1ncccc1C2=O	19.3 µM	1.09 µM	5.68 µM	19.5 µM	13.9 µM	23.3 µM	90.3 µM	1.51 µM	13 µM	> 100 µM	1.13 µM	0.0784 µM	1.63 µM	0.423 µM	0.0792 µM	0.0474 µM	8.23 µM	0.142 µM	0.818 µM	0.0159 µM
C=C1CC2(OC1=O)C(=O)Nc1ccccc12 (stereo not drawn)	26.7 µM	3.85 µM	11 µM	5.94 µM	2.9 µM	26 µM	30 µM	18.8 µM	28.1 µM	6.03 µM	13.5 µM	1.73 µM	3.03 µM	1.8 µM	1.45 µM	6.72 µM	13.4 µM	6.13 µM	11 µM	1.32 µM
Cn1cc2ccccc2c1-c1nc(F)nc(OCC(=O)[C@H]2CCC3[C@@H]4CCC5=CC(=O)CC[C@]5(C)C4[C@@H](O)C[C@@]32C)n1 (stereo partly drawn)	58.8 µM	25.3 µM	42.7 µM	21.3 µM	14.5 µM	33.3 µM	31.3 µM	44.9 µM	35.2 µM	12.8 µM										
N#CC1CC2(CCN1C(=O)c1ccccc1)OCCO2 (stereo not drawn)	> 100 µM	> 100 µM	> 100 µM	> 100 µM	> 100 µM	> 100 µM	> 100 µM	> 100 µM	> 100 µM	> 100 µM										
NCCCNCCCCNC(=O)C(O)NC(=O)CCCCCCN=C(N)N (stereo not drawn)	742 µM and > 5000 µM	> 4090 µM	> 5000 µM	750 µM and > 3790 µM	750 µM and > 5000 µM	> 5000 µM	750 µM and 3420 µM	> 750 µM and 2820 µM	671 µM and > 3170 µM	750 µM and > 4240 µM	4980 µM	2500 µM	> 3580 µM	1770 µM	3480 µM	3070 µM	2040 µM	1730 µM	> 1870 µM	530 µM
O=C1C(Cl)=C(NCc2ccco2)C(=O)c2ccccc21	> 100 µM	> 76.9 µM	> 100 µM	> 100 µM	50.6 µM	81.9 µM	> 100 µM	3.11 µM	7.53 µM	> 100 µM	37.3 µM	7.63 µM	6.14 µM	10.2 µM	21.6 µM	22.5 µM	35 µM	1.62 µM	2.25 µM	20.6 µM
COc1ccc(-c2ccc(-c3ccc(C(=N)N)o3)o2)cc1	14.5 µM	3.16 µM	2.82 µM	7.85 µM	8.81 µM	7.22 µM	21.7 µM	12.1 µM	6.81 µM	2.79 µM	2.79 µM	1.23 µM	0.484 µM	2.68 µM	2.12 µM	2.04 µM	5.71 µM	2.8 µM	1.47 µM	0.417 µM
O=C1C(=Cc2c(O)cc(O)cc2O)C(=O)c2ccccc21	> 100 µM	43.5 µM	> 56.4 µM	> 71.9 µM	27.9 µM	> 63.1 µM	> 56.5 µM	> 100 µM	> 59.7 µM	50.7 µM										
CCCCCCCc1cc2c3c(nc4ccccc42)C(=O)c2cccnc2-c3n1	9.14 µM		27.7 µM	12.6 µM	11.1 µM	11.8 µM	27.2 µM	8.37 µM	10.1 µM	10.7 µM	4.5 µM	1.42 µM	5.99 µM	4.27 µM	5.67 µM	5.48 µM	12.3 µM	4.16 µM	5.11 µM	3.02 µM
CN(Cc1cc(C(C)(C)C)cc(Br)c1O)Cc1cc(C(C)(C)C)cc(Br)c1O	12.7 µM	7.71 µM	15.9 µM	6.79 µM	7.98 µM	11.2 µM	5.86 µM	7.76 µM	13 µM	12.2 µM										
Cc1cnc(C(=O)NNc2nc3sc4c(c3c(=O)n2C)C(C)CCC4)cn1 (stereo not drawn)	9.13 µM	0.765 µM	6.19 µM	> 20 µM	3.6 µM	6.65 µM	8.88 µM	1.72 µM	5.78 µM	> 100 µM	0.292 µM	0.269 µM	0.788 µM	0.357 µM	0.926 µM	0.28 µM	1.02 µM	0.363 µM	0.56 µM	0.237 µM
Cc1cc(Cl)ccc1NC(=O)CC1SC(=Nc2ccccc2Cl)NC1=O (stereo not drawn)	> 100 µM	40.4 µM	> 100 µM	> 100 µM	84.3 µM	> 100 µM	> 100 µM	> 100 µM	> 100 µM	70.2 µM										
Cc1ncc(C(=O)Nc2ccc(CN3CCN(C)CC3)c(C(F)(F)F)c2)cc1C#Cc1cnc(N)cc1C#N	3.38 µM	2.85 µM	2.38 µM	3.5 µM	1.47 µM	3.33 µM	1.03 µM	2.76 µM	3.44 µM	6.27 µM	1.12 µM	0.481 µM	0.0481 µM	0.338 µM	0.227 µM	0.605 µM	0.232 µM	0.711 µM	1.21 µM	0.406 µM
CCN(CC)c1ccc(N=Nc2ccc(-c3nc4ccc[n+](C)c4o3)cc2)cc1	26.7 µM	7.32 µM	24.3 µM	7.38 µM	22.6 µM	31.4 µM	25.5 µM	11 µM	24 µM	20.9 µM										
CC(C)(c1ccccc1)c1ccc(OC#N)cc1	> 100 µM	> 77.9 µM	> 100 µM	> 70.1 µM	> 100 µM	> 100 µM	> 100 µM	> 100 µM	> 74.4 µM	43.1 µM										
COc1ccc(OCC(=O)O)c(C(=O)CCC(=O)O)c1	> 100 µM	> 100 µM	> 100 µM	> 100 µM	> 100 µM	> 100 µM	> 100 µM	> 100 µM	> 100 µM	> 100 µM										
O=C(/C=C/c1ccc(C(F)(F)F)cc1)c1ccc(Nc2nc(NCCO)nc(Nc3ccc(Cl)cc3)n2)cc1	14.5 µM	51.8 µM	6.37 µM	5.43 µM	4.16 µM	18.7 µM	24.5 µM	29.6 µM	8.71 µM	8.74 µM	3.41 µM	12.2 µM	2.32 µM	1.56 µM	1.82 µM	5.05 µM	11.7 µM	14 µM	2.05 µM	1.95 µM
C=C(c1ccccc1)[C@@]1(O)CC[C@@H]1N(CC#N)Cc1ccccc1	> 88.9 µM	> 62.1 µM	40 µM	> 67 µM	34.6 µM	> 83.9 µM	53.1 µM	31.8 µM	> 96.5 µM	> 69.9 µM										
N#CC1(C#N)C(C#N)(C#N)C12CCCCCC2	31.9 µM	20.6 µM	34.6 µM	> 35.1 µM	22.9 µM	48.9 µM	18.4 µM	36.7 µM	> 55.3 µM	75.2 µM										
COc1cccc(/C=N/C(/N=C/c2cccc(OC)c2O)c2cccc(OC)c2O)c1O	52 µM	68.5 µM	> 100 µM	> 100 µM	29.2 µM	42.5 µM	43.2 µM	35.1 µM	48.1 µM	35.1 µM										
CC12CCC(Br)C(C)(C)C1CC=C1C(=O)OCC1O2 (stereo not drawn)	47 µM	> 100 µM	87.5 µM	> 60.6 µM	26.3 µM	31.9 µM	28.6 µM	> 100 µM	34.7 µM	31.2 µM										
O=C(OC[C@H]1O[C@H](OC(=O)c2cc(O)c(O)c(OC(=O)c3cc(O)c(O)c(O)c3)c2)[C@H](OC(=O)c2cc(O)c(O)c(OC(=O)c3cc(O)c(O)c(O)c3)c2)[C@@H](OC(=O)c2cc(O)c(O)c(OC(=O)c3cc(O)c(O)c(O)c3)c2)[C@@H]1OC(=O)c1cc(O)c(O)c(OC(=O)c2cc(O)c(O)c(O)c2)c1)c1cc(O)c(O)c(OC(=O)c2cc(O)c(O)c(O)c2)c1	> 25 µM	23.5 µM	9.22 µM	> 25 µM	7.48 µM	> 25 µM	> 25 µM	13.1 µM	> 25 µM	> 25 µM	5.2 µM	7.53 µM	3.86 µM	7.35 µM	1.2 µM	2.18 µM	9.02 µM	2.98 µM	2.37 µM	1.86 µM
Cn1cc(-c2ccc(-c3ccc(C4=NC5(CC5)C(=O)N4C[C@@H]4CCN(C(=O)C5CC5)C4)cc3)cc2)cn1	55.8 µM	25.9 µM	> 100 µM	19.7 µM	33.3 µM	> 100 µM	> 100 µM	15.2 µM	> 100 µM	95.3 µM	12.9 µM	0.0615 µM	12.5 µM	0.0883 µM	15.9 µM	11.9 µM	24.8 µM	2.46 µM	20 µM	1.68 µM
O=C1C(=O)c2cccnc2-c2ncccc21	1.29 µM	0.443 µM	2.33 µM	0.399 µM	0.266 µM	1.01 µM	2.35 µM	0.801 µM	1.4 µM	1.08 µM	0.322 µM	0.18 µM	1.04 µM	0.0459 µM	0.0768 µM	0.224 µM	0.71 µM	0.239 µM	0.123 µM	0.0875 µM
Cc1cc(N2CCOCC2)cc2[nH]c(-c3c(NC[C@@H](O)c4cccc(Cl)c4)cc[nH]c3=O)nc12	29.1 µM	2.45 µM	1.81 µM	> 100 µM	2.11 µM	7.63 µM	5.98 µM	11.3 µM	2.47 µM	5.06 µM	1.62 µM	0.0567 µM	0.0672 µM	3.22 µM	0.567 µM	2.06 µM	1.98 µM	2.13 µM	1.15 µM	0.295 µM
CCNC(=O)O[C@H]1CN[C@H](C#Cc2cc3ncnc(Nc4ccc(OCc5cccc(F)c5)c(Cl)c4)c3s2)C1	> 14.8 µM	> 19.4 µM	> 25 µM	> 23.4 µM	> 17.3 µM	> 25 µM	24.9 µM	> 25 µM	> 25 µM	> 25 µM	0.668 µM	5.71 µM	9.47 µM	5.41 µM	4.75 µM	6 µM	6.1 µM	10.2 µM	4.76 µM	6.99 µM
CC(C)CC(NC(=O)OC(C)(C)C)C(=O)Nc1ccc(Nc2nc(F)nc(-c3c4ccccc4cn3C)n2)cc1 (stereo not drawn)	> 81.1 µM	33 µM	54.9 µM	22.4 µM	> 87.1 µM	> 100 µM	> 100 µM	> 100 µM	> 100 µM	> 74.1 µM										
CN(C)CC/[N+]([O-])=C(/c1ccccc1)C12CC3CC(CC(C3)C1)C2	38.1 µM	26.1 µM	23.8 µM	42.7 µM	32.9 µM	35.9 µM	34.9 µM	32 µM	24.7 µM	43.9 µM										
O=C1CCc2c(sc3[nH]c(=S)n(Cc4ccc(Cl)cc4)c(=O)c23)C1	> 100 µM	1.81 µM	> 100 µM		5.05 µM	> 100 µM	6.12 µM	1.13 µM	> 81.4 µM	> 45.2 µM	0.544 µM	0.347 µM	3.27 µM	0.383 µM	0.401 µM	0.442 µM	2.07 µM	0.362 µM	0.387 µM	0.562 µM

Source: PubChem BioAssay (NCI)
